Laboratory results published in ChEMBL document CHEMBL1158870, “Antitumor agents. 180. Chemical Studies and cytotoxic evaluation of cumingianosides and cumindysoside A, antileukemic triterpene glucosides with a 14,18-cycloapotirucallane skeleton” (1997).

Key:
CCRF-CEM = assay: Cytotoxicity against human CCRF-CEM cells by SRB assay; format: functional
[1] = Cytotoxicity against human HL60(TB) cells by SRB assay; format: functional, HL-60(TB); conditions: HL-60
K562 = assay: Cytotoxicity against human K562 cells by SRB assay; format: functional
MOLT-4 = assay: Cytotoxicity against human MOLT4 cells by SRB assay; format: functional
RPMI-8226 = assay: Cytotoxicity against human RPMI8226 cells by SRB assay; format: functional
SR = assay: Cytotoxicity against human SR cells by SRB assay; format: functional
A549 = assay: Cytotoxicity against human A549 cells by SRB assay; format: functional
EKVX = assay: Cytotoxicity against human EKVX cells by SRB assay; format: functional
HOP-62 = assay: Cytotoxicity against human HOP62 cells by SRB assay; format: functional
HOP-92 = assay: Cytotoxicity against human HOP92 cells by SRB assay; format: functional
NCI-H226 = assay: Cytotoxicity against human NCI-H226 cells by SRB assay; format: functional
NCI-H23 = assay: Cytotoxicity against human NCI-H23 cells by SRB assay; format: functional
NCI-H322M = assay: Cytotoxicity against human NCI-H322M cells by SRB assay; format: functional
NCI-H460 = assay: Cytotoxicity against human NCI-H460 cells by SRB assay; format: functional
NCI-H522 = assay: Cytotoxicity against human NCI-H522 cells by SRB assay; format: functional
COLO 205 = assay: Cytotoxicity against human COLO205 cells by SRB assay; format: functional
HCC 2998 = assay: Cytotoxicity against human HCC2998 cells by SRB assay; format: functional
HCT-116 = assay: Cytotoxicity against human HCT116 cells by SRB assay; format: functional
HCT-15 = assay: Cytotoxicity against human HCT15 cells by SRB assay; format: functional
HT-29 = assay: Cytotoxicity against human HT29 cells by SRB assay; format: functional
KM12 = assay: Cytotoxicity against human KM12 cells by SRB assay; format: functional
SW-620 = assay: Cytotoxicity against human SW620 cells by SRB assay; format: functional
SF-268 = assay: Cytotoxicity against human SF268 cells by SRB assay; format: functional
SF-295 = assay: Cytotoxicity against human SF295 cells by SRB assay; format: functional
SNB-19 = assay: Cytotoxicity against human SNB19 cells by SRB assay; format: functional
SNB-75 = assay: Cytotoxicity against human SNB75 cells by SRB assay; format: functional
U-251 = assay: Cytotoxicity against human U251 cells by SRB assay; format: functional
LOX IMVI = assay: Cytotoxicity against human LOXIMVI cells by SRB assay; format: functional
Malme-3M = assay: Cytotoxicity against human MALME-3M cells by SRB assay; format: functional
M14 = assay: Cytotoxicity against human M14 cells by SRB assay; format: functional
SK-MEL-2 = assay: Cytotoxicity against human SK-MEL-2 cells by SRB assay; format: functional
SK-MEL-28 = assay: Cytotoxicity against human SK-MEL-28 cells by SRB assay; format: functional
SK-MEL-5 = assay: Cytotoxicity against human SK-MEL-5 cells by SRB assay; format: functional
UACC-257 = assay: Cytotoxicity against human UACC257 cells by SRB assay; format: functional
UACC-62 = assay: Cytotoxicity against human UACC62 cells by SRB assay; format: functional
IGROV-1 = assay: Cytotoxicity against human IGROV1 cells by SRB assay; format: functional
OVCAR-3 = assay: Cytotoxicity against human OVCAR-3 cells by SRB assay; format: functional
OVCAR-4 = assay: Cytotoxicity against human OVCAR4 cells by SRB assay; format: functional
OVCAR-5 = assay: Cytotoxicity against human OVCAR5 cells by SRB assay; format: functional
OVCAR-8 = assay: Cytotoxicity against human OVCAR8 cells by SRB assay; format: functional
SK-OV-3 = assay: Cytotoxicity against human SKOV3 cells by SRB assay; format: functional
[2] = Cytotoxicity against human 786-O cells by SRB assay; format: functional; conditions: 786-0
A498 = assay: Cytotoxicity against human A498 cells by SRB assay; format: functional
ACHN = assay: Cytotoxicity against human ACHN cells by SRB assay; format: functional
CAKI-1 = assay: Cytotoxicity against human Caki1 cells by SRB assay; format: functional
RXF 393 = assay: Cytotoxicity against human RXF393 cells by SRB assay; format: functional
SN12C = assay: Cytotoxicity against human SN12C cells by SRB assay; format: functional
UO-31 = assay: Cytotoxicity against human UO31 cells by SRB assay; format: functional
PC-3 = assay: Cytotoxicity against human PC3 cells by SRB assay; format: functional
DU-145 = assay: Cytotoxicity against human DU145 cells by SRB assay; format: functional
MCF7 = assay: Cytotoxicity against human MCF7 cells by SRB assay; format: functional
[3] = Cytotoxicity against human MCF7/ADR cells by SRB assay; format: functional; conditions: NCI/ADR-RES
MDA-MB-231 = assay: Cytotoxicity against human MDA-MB-231 cells by SRB assay; format: functional
[4] = Cytotoxicity against human Hs 578T cells by SRB assay; format: functional
MDA-MB-435 = assay: Cytotoxicity against human MDA-MB-435 cells by SRB assay; format: functional
MDA-N = assay: Cytotoxicity against human MDA-N cells by SRB assay; format: functional
BT-549 = assay: Cytotoxicity against human BT549 cells by SRB assay; format: functional
T47D = assay: Cytotoxicity against human T47D cells by SRB assay; format: functional
Leukemia cell = assay: Cytotoxicity against human Leukemia cells by SRB assay; format: functional
NSCLC = assay: Cytotoxicity against human NSCLC cells by SRB assay; format: functional
[5] = Cytotoxicity against human Colon cancer cells by SRB assay; format: functional; conditions: Cancer cell lines
[6] = Cytotoxicity against human CNS cancer cells by SRB assay; format: functional; conditions: Cancer cell lines
[7] = Cytotoxicity against human melanoma cells by SRB assay; format: functional; conditions: Melanoma cell
[8] = Cytotoxicity against human ovarian cancer cells by SRB assay; format: functional; conditions: Cancer cell lines
[9] = Cytotoxicity against human prostate cancer cells by SRB assay; format: functional; conditions: Cancer cell lines
[10] = Cytotoxicity against human breast cancer cells by SRB assay; format: functional; conditions: Cancer cell lines
[11] = Cytotoxicity against human renal cancer cells by SRB assay; format: functional; conditions: Cancer cell lines

COC(C)(C)[C@@H](O)[C@H]1C[C@H](C)[C@@]2(CC[C@]3(C)[C@@H]2CC[C@@H]2[C@@]4(C)CC[C@@H](OC(C)=O)C(C)(C)[C@@H]4C[C@@H](O[C@@H]4O[C@H](COC(C)=O)[C@@H](O)[C@H](O)[C@H]4O)[C@]23C)O1
GI50 (CCRF-CEM): 3.09 µM | GI50 [1]: 2.34 µM | GI50 (K562): 3.09 µM | GI50 (MOLT-4): 2.29 µM | GI50 (RPMI-8226): 2.4 µM | GI50 (SR): 2.19 µM | GI50 (A549): 3.89 µM | GI50 (EKVX): 5.5 µM | GI50 (HOP-62): 11.5 µM | GI50 (HOP-92): 12.9 µM | GI50 (NCI-H226): 4.79 µM | GI50 (NCI-H23): 9.33 µM | GI50 (NCI-H322M): 1.91 µM | GI50 (NCI-H460): 3.8 µM | GI50 (NCI-H522): 4.57 µM | GI50 (COLO 205): 2.14 µM | TGI (COLO 205): 4.7 µM | GI50 (HCC 2998): 0.204 µM | TGI (HCC 2998): 1.8 µM | GI50 (HCT-116): 2.69 µM | TGI (HCT-116): 10 µM | GI50 (HCT-15): 2.4 µM | TGI (HCT-15): 5.6 µM | GI50 (HT-29): 1.86 µM | TGI (HT-29): 4 µM | GI50 (KM12): 1.32 µM | TGI (KM12): 2 µM | GI50 (SW-620): 6.46 µM | TGI (SW-620): 19.8 µM | GI50 (SF-268): 6.03 µM | GI50 (SF-295): 4.37 µM | GI50 (SNB-19): 10 µM | GI50 (SNB-75): 3.55 µM | GI50 (U-251): 5.37 µM | GI50 (LOX IMVI): 4.79 µM | GI50 (Malme-3M): 11.2 µM | GI50 (M14): 4.47 µM | GI50 (SK-MEL-2): 6.17 µM | GI50 (SK-MEL-28): 6.31 µM | GI50 (SK-MEL-5): 8.32 µM | GI50 (UACC-257): 5.89 µM | GI50 (UACC-62): 5.25 µM | GI50 (IGROV-1): 4.37 µM | GI50 (OVCAR-3): 4.79 µM | GI50 (OVCAR-4): 2.95 µM | GI50 (OVCAR-5): 3.16 µM | GI50 (OVCAR-8): 5.25 µM | GI50 (SK-OV-3): 4.79 µM | GI50 [2]: 5.25 µM | GI50 (A498): 13.2 µM | GI50 (ACHN): 5.25 µM | GI50 (CAKI-1): 5.37 µM | GI50 (RXF 393): 3.16 µM | GI50 (SN12C): 4.17 µM | GI50 (UO-31): 5.25 µM | GI50 (PC-3): 2.82 µM | GI50 (DU-145): 4.47 µM | GI50 (MCF7): 2.14 µM | GI50 [3]: 7.41 µM | GI50 (MDA-MB-231): 11 µM | GI50 [4]: 4.07 µM | GI50 (MDA-MB-435): 3.63 µM | GI50 (MDA-N): 5.25 µM | GI50 (BT-549): 12.6 µM | GI50 (T47D): 4.17 µM | TGI (Leukemia cell): 32.1 µM | TGI (NSCLC): 17.8 µM | TGI [5]: 6.9 µM | TGI [6]: 18.7 µM | TGI [7]: 20.2 µM | TGI [8]: 15.8 µM | TGI [9]: 13.1 µM | TGI [10]: 18.6 µM | TGI [11]: 17.9 µM
